Key:
Type in all cases: in vivo
[1] = system: Digitaria sanguinalis; assay: LTP post-emergence greenhouse test; details: Dosage 2000 g/ha
[2] = system: Phalaris paradoxa; assay: LTP pre-emergence greenhouse test; details: Dosage 2000 g/ha
Method: (§1) A basic panel of 8 weed species (Table 3) were sowed in 4×4×7 cm plastic pots containing inert sand (Sweet sand), intensively washed using osmosis water. Each specie was sowed in a separate pot. In each pot 10-15 seeds were sowed according to the specie viability. Sowing was performed one day before application. The plants were grown for 21 days in a controlled greenhouse (26±2° C. day 20±2° C. night). Hood irrigation (tap water+Shefer 5:3:8 8 mM) was given at a 50% water content by weight. Compounds were soluble in water (DDW), and commercial herbicide control was soluble in formulation B (Table 4). Application was conducted with an industrial sprayer (TeeJet 6502E nozzle) at a rate of 2 kg/ha and spray volume of […]. Pre-emergence advanced dose response experiment application was conducted at six rates between 1-0.0312 kg/ha and spray volume of […]. Percentage of emergence was evaluated at 15 DAA. Visual phenotyping was recorded using a scale of 0-6 (0: no visible effect, 6: maximum effect) at 18 DAA. All experiments included an untreated control, a solvent control and a positive control (commercial herbicide A.I.). […] Statistical analysis for plant emergence determined by % emergence ≥50 and T test (pval≤0.05), as well as Wilcox test (pval≤0.05).

[3] = system: Ambrosia artemisiifolia; assay: LTP pre-emergence greenhouse test; details: Dosage 2000 g/ha
Method: as §1

[4] = system: Amaranthus palmeri; assay: LTP pre-emergence greenhouse test; details: Dosage 2000 g/ha
Method: as §1

[5] = system: Arabidopsis thaliana; assay: LTP pre-emergence greenhouse test; details: Dosage 2000 g/ha
Method: as §1

[6] = system: Alopecurus myosuroides; assay: LTP pre-emergence greenhouse test; details: Dosage 2000 g/ha
Method: as §1

[7] = system: Eragrostis tef; assay: LTP pre-emergence greenhouse test; details: Dosage 2000 g/ha
Method: as §1

[8] = system: Matricaria chamomilla; assay: LTP pre-emergence greenhouse test; details: Dosage 2000 g/ha
Method: as §1

[9] = system: Abutilon theophrasti; assay: LTP pre-emergence greenhouse test; details: Dosage 2000 g/ha
Method: as §1

[10] = system: Setaria viridis; assay: LTP pre-emergence greenhouse test; details: Dosage 2000 g/ha
Method: as §1

[11] = system: Poa annua; assay: LTP pre-emergence greenhouse test; details: Dosage 2000 g/ha
Method: as §1

[12] = system: Sinapis alba; assay: LTP pre-emergence greenhouse test; details: Dosage 2000 g/ha
Method: as §1

[13] = system: Lolium perenne; assay: LTP pre-emergence greenhouse test; details: Dosage 2000 g/ha
Method: as §1

[14] = system: Setaria viridis; assay: LTP post-emergence greenhouse test; details: Dosage 2000 g/ha
[15] = system: Solanum nigrum; assay: LTP post-emergence greenhouse test; details: Dosage 2000 g/ha
[16] = system: Amaranthus tuberculatus; assay: LTP post-emergence greenhouse test; details: Dosage 2000 g/ha
Method: A basic panel of eight weed species (Table 3) sowed in 4×4×7 cm plastic pots containing a garden mix (klasmann). Each specie was sowed in a separate pot. In each pot, 10-15 seeds were sowed according to the specie viability. Timing of application determined at a 1-2 true leaf stage. The plants grew for 30 days in a controlled greenhouse (26±2° C. day, 20±2° C. night). Hood irrigation (tap water+Shefer 5:3:8 8 mM) was given at a 50% water content by weight. Two days before application, the tested plants thinned down to three plants per pot. Compounds were soluble in water (DDW), and commercial herbicide control was soluble in formulation B (Table 4). Before application, 1% (v/v) crop oil and 0.02% (v/v) surfactant (Tergitol™ 15-S-7) were added to the solution. […] Plants were evaluated at 3 time points (4, 8, 12 days after application (DAA)). At each time point, visual phenotyping was recorded using a scale of 0-6 (0: no visible effect, 6: maximum effect). […]
Post-emergence advanced wide panel experiment included 24 weed species (Table 5). […] Visual phenotyping was recorded at 4, 11, 17 and 20 DAA using a scale of 0-6 (0: no visible effect, 6: maximum effect). […] Statistical analysis for visual phenotyping determined by a median value of ≥3.5 and Fisher test (pval≤0.05). Statistical analysis for dry weight determined by % inhibition ≥50 and T test (pval≤0.05), as well as Wilcox test (pval≤0.05).

[17] = system: Lolium multiflorum; assay: LTP post-emergence greenhouse test; details: Dosage 2000 g/ha
[18] = system: Arabidopsis thaliana; assay: HTPS pre-emergence application on dicot model plant
Method: The plates were placed in a controlled greenhouse in a random order inside a bath which allows flooding irrigation with tap water supplemented with a fertilizer. Applied compounds were dissolved into a final solution of 50% acetone, 49.9% DDW, 0.1% tween-20. A 96 well plate was used as a stock plate for preparing application solutions for 8 repeats. Each row contained different concentrations per chemical. Maximal concentration for application was 1.5 Kg/Ha and dilution factor is 2.5. Chemical application was performed one day after thinning out in a chemical hood. […] applied on first two true leaves in each well using 12 channel pipettes. Data collection: RGB (red, green, blue) data for green area per well was documented using camera. Data is collected at a few time points during the experiment: one day after thinning and before chemical application, two-, six- or nine-days post application. During the last two documentations, visual phenotyping was performed. Data analysis: Given RGB results and visual phenotype scores, a student t-test conducted to compare between treatment and control performance for continuous data (RGB) and Fisher exact test to analyze the non-continuous data (phenotypic scores). Dose-Response curves are generated for each treatment to infer ED50 and max. inhibition parameters, using treatment's log concentration range as the […] and normalized green area. […] Plate imaging performed at 11 and 18 DAA. RGB data for green area per well was documented and used to extract % inhibition. Dose-Response curves were built for each treatment to infer EC50, EC75 and EC90 parameters, using treatment's log concentration range as the independent variable and normalized green area as the dependent variable. Treatments were compared to controls performance given RGB results and using student's t-test (p-val≤0.05). Compounds 104-154 were applied in either or both pre- and post-emergence mode to either or both monocot and dicot model plants, following the methods described above. The compounds were applied as a gradient of concentrations as listed above, from which the ED50 was calculated.

[19] = system: Arabidopsis thaliana; assay: LTP post-emergence greenhouse test; details: Dosage 2000 g/ha

For `C[C@@H](O)[C@@H](N)CCCCC(=O)O` [Compound 104, (6S,7R)-6-amino-7-hydroxyoctanoic acid], the “Herbicidal activity (In-planta), LTP-Post emergence, Digitaria sanguinalis” value [1] was 95, the “Herbicidal activity (In-planta), LTP-Pre emergence, Phalaris paradoxa” value [2] was 60 and the “Herbicidal activity (In-planta), LTP-Pre emergence, Ambrosia artemisiifolia” value [3] was 0. The “Herbicidal activity (In-planta), LTP-Pre emergence, Amaranthus palmeri” value [4] was 80, the “Herbicidal activity (In-planta), LTP-Pre emergence, Arabidopsis thaliana” value [5] was 40-80 and the “Herbicidal activity (In-planta), LTP-Pre emergence, Alopecurus myosuroides” value [6] was 40. The “Herbicidal activity (In-planta), LTP-Pre emergence, Eragrostis tef” value [7] was 100, the “Herbicidal activity (In-planta), LTP-Pre emergence, Matricaria chamomilla” value [8] was 80 and the “Herbicidal activity (In-planta), LTP-Pre emergence, Abutilon theophrasti” value [9] was 60-80. For the same compound, the “Herbicidal activity (In-planta), LTP-Pre emergence, Setaria viridis” value [10] was 100, the “Herbicidal activity (In-planta), LTP-Pre emergence, Poa annua” value [11] was 100 and the “Herbicidal activity (In-planta), LTP-Pre emergence, Sinapis alba” value [12] was 40-60. The “Herbicidal activity (In-planta), LTP-Pre emergence, Lolium perenne” value [13] was 80, the “Herbicidal activity (In-planta), LTP-Post emergence, Setaria viridis” value [14] was 90-95 and the “Herbicidal activity (In-planta), LTP-Post emergence, Solanum nigrum” value [15] was 80-90. For the same compound, the “Herbicidal activity (In-planta), LTP-Post emergence, Amaranthus tuberculatus” value [16] was 80, the “Herbicidal activity (In-planta), LTP-Post emergence, Lolium multiflorum” value [17] was 80-90 and the “ED50 (g/ha)” value ([18]; dose-response of normalized green area) was 6 g/ha. For the same compound, the “Max Inhibition (%)” value ([18]; green area (RGB)) was 94% and the “Herbicidal activity (In-planta), LTP-Post emergence, Arabidopsis thaliana” value [19] was 60.

— US20230331685A1, “HERBICIDAL COMPOUNDS AND METHODS OF USE THEREOF” (AG Plenus Ltd, priority 2020, published 2023)
